In US10927354B2, “D-type amino acid dehydrogenase” (Kureha Corporation, priority 2017, dated 2021):

tested on: five-mutation introduced D-type amino acid dehydrogenase (Met155Leu, Val159Gly, Thr174Ile, Arg184Met, His230Asn); assay: D-amino acid synthesis activity, five-mutation enzyme; assay type: biochemical, Numidum massiliense; conditions: 5 mM 2-oxo acid, 0.1 mM NADH, 200 mM ammonium chloride, pH 9.5, 50° C.
Method: In order to prepare a gene for a mutant enzyme in which five types of mutations (Met155Leu, Val159Gly, Thr174Ile, Arg184Met, and His230Asn) are introduced into the D-type amino acid dehydrogenase derived from N. massiliense, the six mutation-introduced D-type amino acid dehydrogenase/pET-21a(+) prepared above was used as a template to prepare the expression vector by PCR using “PrimeSTAR Max DNA Polymerase” available from Takara Bio Inc. PCR was performed according to the manufacturer's protocol. A PCR reaction solution was prepared by containing 0.3 μM of each of the following primers and 50 ng of templet DNA as described above.
(§1) The activity of the enzyme was measured by determining a decrease in absorbance at wavelength of 340 nm of NADPH or NADH produced by the catalytic reaction of the enzyme. […] The absorbance was measured by an ultraviolet-visible spectrophotometer UV-1800 (available from SHIMADZU).

| SMILES | D-amino acid synthesis activity (specific activity), Five-mutation enzyme, NADH |
| --- | --- |
| CC(C)C(=O)C(=O)O [2-oxo-3-methylbutanoic acid] | 0.018 µmol/min/mg |
| CCC(C)C(=O)C(=O)O (centres unmarked) [2-oxo-3-methylpentanoic acid] | 0.025 µmol/min/mg |
| O=C(O)C(=O)Cc1ccccc1 [2-oxo-3-phenylpropanoic acid] | 0.012 µmol/min/mg |
| CSCCC(=O)C(=O)O [2-oxo-4-(methylthio)butanoic acid] | 0.069 µmol/min/mg |
| CC(C)CC(=O)C(=O)O [2-oxo-4-methylpentanoic acid] | 0.055 µmol/min/mg |
| O=C(O)CC(=O)C(=O)O [2-oxobutanedioic acid] | 0.25 µmol/min/mg |
| CCC(=O)C(=O)O [2-oxobutanoic acid] | 0.014 µmol/min/mg |
| O=C(O)CCC(=O)C(=O)O [2-oxoglutaric acid] | No |
| CCCCCCC(=O)C(=O)O [2-oxooctanoic acid] | 0.050 µmol/min/mg |
| CC(=O)C(=O)O [2-oxopropanoic acid] | 0.046 µmol/min/mg |

same assay, conditions: 5 mM 2-oxo acid, 0.1 mM NADPH, 200 mM ammonium chloride, pH 9.5, 50° C.

| SMILES | D-amino acid synthesis activity (specific activity), Five-mutation enzyme, NADPH |
| --- | --- |
| CC(C)C(=O)C(=O)O [2-oxo-3-methylbutanoic acid] | 2.4 µmol/min/mg |
| CCC(C)C(=O)C(=O)O (centres unmarked) [2-oxo-3-methylpentanoic acid] | 4.0 µmol/min/mg |
| O=C(O)C(=O)Cc1ccccc1 [2-oxo-3-phenylpropanoic acid] | 2.7 µmol/min/mg |
| CSCCC(=O)C(=O)O [2-oxo-4-(methylthio)butanoic acid] | 12.3 µmol/min/mg |
| CC(C)CC(=O)C(=O)O [2-oxo-4-methylpentanoic acid] | 9.0 µmol/min/mg |
| O=C(O)CC(=O)C(=O)O [2-oxobutanedioic acid] | 0.39 µmol/min/mg |
| CCC(=O)C(=O)O [2-oxobutanoic acid] | 1.6 µmol/min/mg |
| O=C(O)CCC(=O)C(=O)O [2-oxoglutaric acid] | No |
| CCCCCCC(=O)C(=O)O [2-oxooctanoic acid] | 11.2 µmol/min/mg |
| CC(=O)C(=O)O [2-oxopropanoic acid] | 0.30 µmol/min/mg |

tested on: D-type amino acid dehydrogenase derived from N. massiliense (wild type); assay: D-amino acid synthesis activity, wild type enzyme; assay type: biochemical, Numidum massiliense; conditions: 5 mM 2-oxo acid, 0.1 mM NADH, 200 mM ammonium chloride, pH 9.5, 50° C.
Method: as §1

| SMILES | D-amino acid synthesis activity (specific activity), Wild type, NADH |
| --- | --- |
| CC(C)C(=O)C(=O)O [2-oxo-3-methylbutanoic acid] | 0.0012 µmol/min/mg |
| CCC(C)C(=O)C(=O)O (centres unmarked) [2-oxo-3-methylpentanoic acid] | No |
| O=C(O)C(=O)Cc1ccccc1 [2-oxo-3-phenylpropanoic acid] | 0.011 µmol/min/mg |
| CSCCC(=O)C(=O)O [2-oxo-4-(methylthio)butanoic acid] | No |
| CC(C)CC(=O)C(=O)O [2-oxo-4-methylpentanoic acid] | No |
| O=C(O)CC(=O)C(=O)O [2-oxobutanedioic acid] | 0.13 µmol/min/mg |
| CCC(=O)C(=O)O [2-oxobutanoic acid] | 0.011 µmol/min/mg |
| O=C(O)CCC(=O)C(=O)O [2-oxoglutaric acid] | No |
| CCCCCCC(=O)C(=O)O [2-oxooctanoic acid] | No |
| CC(=O)C(=O)O [2-oxopropanoic acid] | 0.13 µmol/min/mg |

same assay, conditions: 5 mM 2-oxo acid, 0.1 mM NADPH, 200 mM ammonium chloride, pH 9.5, 50° C.

| SMILES | D-amino acid synthesis activity (specific activity), Wild type, NADPH |
| --- | --- |
| CC(C)C(=O)C(=O)O [2-oxo-3-methylbutanoic acid] | 0.26 µmol/min/mg |
| CCC(C)C(=O)C(=O)O (centres unmarked) [2-oxo-3-methylpentanoic acid] | 0.18 µmol/min/mg |
| O=C(O)C(=O)Cc1ccccc1 [2-oxo-3-phenylpropanoic acid] | 1.5 µmol/min/mg |
| CSCCC(=O)C(=O)O [2-oxo-4-(methylthio)butanoic acid] | 2.0 µmol/min/mg |
| CC(C)CC(=O)C(=O)O [2-oxo-4-methylpentanoic acid] | 0.803 µmol/min/mg |
| O=C(O)CC(=O)C(=O)O [2-oxobutanedioic acid] | 5.2 µmol/min/mg |
| CCC(=O)C(=O)O [2-oxobutanoic acid] | 1.4 µmol/min/mg |
| O=C(O)CCC(=O)C(=O)O [2-oxoglutaric acid] | 0.11 µmol/min/mg |
| CCCCCCC(=O)C(=O)O [2-oxooctanoic acid] | 5.8 µmol/min/mg |
| CC(=O)C(=O)O [2-oxopropanoic acid] | 4.7 µmol/min/mg |

tested on: six-mutation introduced D-type amino acid dehydrogenase (Asp95Ser, Met155Leu, Val159Gly, Thr174Ile, Arg184Met, His230Asn); assay: D-amino acid synthesis activity, six-mutation enzyme; assay type: biochemical, Numidum massiliense; conditions: 5 mM 2-oxo acid, 0.1 mM NADH, 200 mM ammonium chloride, pH 9.5, 50° C.
Method: DNA encoding polypeptide into which six types of mutations (Asp95Ser, Met155Leu, Val159Gly, Thr174Ile, Arg184Met, and His230Asn) were introduced into the amino acid sequence of D-type amino acid dehydrogenase derived from N. massiliense was obtained by synthesis. An expression vector that retains the six-mutation introduced D-type amino acid dehydrogenase gene was further constructed in the same manner as described above.
as §1

| SMILES | D-amino acid synthesis activity (specific activity), Six-mutation enzyme, NADH |
| --- | --- |
| CC(C)C(=O)C(=O)O [2-oxo-3-methylbutanoic acid] | No |
| CCC(C)C(=O)C(=O)O (centres unmarked) [2-oxo-3-methylpentanoic acid] | 0.0030 µmol/min/mg |
| O=C(O)C(=O)Cc1ccccc1 [2-oxo-3-phenylpropanoic acid] | 0.018 µmol/min/mg |
| CSCCC(=O)C(=O)O [2-oxo-4-(methylthio)butanoic acid] | 0.024 µmol/min/mg |
| CC(C)CC(=O)C(=O)O [2-oxo-4-methylpentanoic acid] | 0.011 µmol/min/mg |
| O=C(O)CC(=O)C(=O)O [2-oxobutanedioic acid] | 0.14 µmol/min/mg |
| CCC(=O)C(=O)O [2-oxobutanoic acid] | 0.0011 µmol/min/mg |
| O=C(O)CCC(=O)C(=O)O [2-oxoglutaric acid] | No |
| CCCCCCC(=O)C(=O)O [2-oxooctanoic acid] | 1.0 µmol/min/mg |
| CC(=O)C(=O)O [2-oxopropanoic acid] | 0.12 µmol/min/mg |

same assay, conditions: 5 mM 2-oxo acid, 0.1 mM NADPH, 200 mM ammonium chloride, pH 9.5, 50° C.

| SMILES | D-amino acid synthesis activity (specific activity), Six-mutation enzyme, NADPH |
| --- | --- |
| CC(C)C(=O)C(=O)O [2-oxo-3-methylbutanoic acid] | 0.051 µmol/min/mg |
| CCC(C)C(=O)C(=O)O (centres unmarked) [2-oxo-3-methylpentanoic acid] | 0.23 µmol/min/mg |
| O=C(O)C(=O)Cc1ccccc1 [2-oxo-3-phenylpropanoic acid] | 2.1 µmol/min/mg |
| CSCCC(=O)C(=O)O [2-oxo-4-(methylthio)butanoic acid] | 2.8 µmol/min/mg |
| CC(C)CC(=O)C(=O)O [2-oxo-4-methylpentanoic acid] | 1.2 µmol/min/mg |
| O=C(O)CC(=O)C(=O)O [2-oxobutanedioic acid] | 0.44 µmol/min/mg |
| CCC(=O)C(=O)O [2-oxobutanoic acid] | 0.027 µmol/min/mg |
| O=C(O)CCC(=O)C(=O)O [2-oxoglutaric acid] | No |
| CCCCCCC(=O)C(=O)O [2-oxooctanoic acid] | 9.0 µmol/min/mg |
| CC(=O)C(=O)O [2-oxopropanoic acid] | 0.0070 µmol/min/mg |

tested on: three-mutation introduced D-type amino acid dehydrogenase (Thr174Ile, Arg184Met, His230Asn); assay: D-amino acid synthesis activity, three-mutation enzyme; assay type: biochemical, Numidum massiliense; conditions: 5 mM 2-oxo acid, 0.1 mM NADH, 200 mM ammonium chloride, pH 9.5, 50° C.
Source text: DNA encoding polypeptide in which three types of mutations (Thr174Ile, Arg184Met, and His230Asn) were introduced into the amino acid sequence of D-type amino acid dehydrogenase derived from N. massiliense was obtained by synthesis. This was cleaved with restriction enzymes NdeI and EcoRI, separated by agarose gel electrophoresis, and then extracted and purified from the gel. DNA fragments after a restriction enzyme treatment were incorporated into restriction enzyme sites (NdeI and EcoRI) of pET-21a(+) (available from Novagen) of a plasmid for protein expression by a ligation reaction to construct an expression vector that retains three-mutation introduced D-type amino acid dehydrogenase gene. The expression vector was constructed such that the three-mutation introduced D-type amino acid dehydrogenase gene was incorporated into downstream of the T7 promoter and the […] binding site, and upstream of the T7 terminator.
as §1

| SMILES | D-amino acid synthesis activity (specific activity), Three-mutation enzyme, NADH |
| --- | --- |
| CC(C)C(=O)C(=O)O [2-oxo-3-methylbutanoic acid] | 0.043 µmol/min/mg |
| CCC(C)C(=O)C(=O)O (centres unmarked) [2-oxo-3-methylpentanoic acid] | 0.043 µmol/min/mg |
| O=C(O)C(=O)Cc1ccccc1 [2-oxo-3-phenylpropanoic acid] | 0.028 µmol/min/mg |
| CSCCC(=O)C(=O)O [2-oxo-4-(methylthio)butanoic acid] | 0.013 µmol/min/mg |
| CC(C)CC(=O)C(=O)O [2-oxo-4-methylpentanoic acid] | 0.044 µmol/min/mg |
| O=C(O)CC(=O)C(=O)O [2-oxobutanedioic acid] | 0.12 µmol/min/mg |
| CCC(=O)C(=O)O [2-oxobutanoic acid] | 0.028 µmol/min/mg |
| O=C(O)CCC(=O)C(=O)O [2-oxoglutaric acid] | No |
| CCCCCCC(=O)C(=O)O [2-oxooctanoic acid] | 0.039 µmol/min/mg |
| CC(=O)C(=O)O [2-oxopropanoic acid] | 0.000 µmol/min/mg |

same assay, conditions: 5 mM 2-oxo acid, 0.1 mM NADPH, 200 mM ammonium chloride, pH 9.5, 50° C.

| SMILES | D-amino acid synthesis activity (specific activity), Three-mutation enzyme, NADPH |
| --- | --- |
| CC(C)C(=O)C(=O)O [2-oxo-3-methylbutanoic acid] | 2.5 µmol/min/mg |
| CCC(C)C(=O)C(=O)O (centres unmarked) [2-oxo-3-methylpentanoic acid] | 4.7 µmol/min/mg |
| O=C(O)C(=O)Cc1ccccc1 [2-oxo-3-phenylpropanoic acid] | 1.5 µmol/min/mg |
| CSCCC(=O)C(=O)O [2-oxo-4-(methylthio)butanoic acid] | 5.2 µmol/min/mg |
| CC(C)CC(=O)C(=O)O [2-oxo-4-methylpentanoic acid] | 4.6 µmol/min/mg |
| O=C(O)CC(=O)C(=O)O [2-oxobutanedioic acid] | 2.0 µmol/min/mg |
| CCC(=O)C(=O)O [2-oxobutanoic acid] | 2.2 µmol/min/mg |
| O=C(O)CCC(=O)C(=O)O [2-oxoglutaric acid] | No |
| CCCCCCC(=O)C(=O)O [2-oxooctanoic acid] | 8.2 µmol/min/mg |
| CC(=O)C(=O)O [2-oxopropanoic acid] | 2.2 µmol/min/mg |
